Data reported in patent publication US8574563B2 (Bristol-Myers Squibb Company, priority 2006, dated 2013).

test system: HCV 1b-377-neo replicon cells; experiment: HCV replicon assay, HCV 1b-377-neo replicon cells (1b FRET); assay type: cell-based, Hepatitis C virus genotype 1b; conditions: HCV 1b-377-neo replicon cells; HCV 1b genotype; read-out: EC50 range against HCV 1b (Table 2, Range)
How it was run: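 Compounds were tested in genotype 1b subgenomic replicon cells carrying a neomycin marker, alongside a matched replicon line with an NS5A Y2065H substitution that confers resistance to a reference NS5A inhibitor.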

`COC(=O)N[C@@H](C(=O)N1CCC[C@H]1c1ncc(-c2ccc(-c3ccc(-c4cnc([C@@H]5CCCN5C(=O)[C@H]5CCC(=O)N5)[nH]4)cc3)cc2)[nH]1)c1ccccc1` [Example 84-3] was tested, and the EC50 was 0.001 to 0.999 nM.

same assay, conditions: Hepatitis C virus, HCV 1b-377-neo replicon cells; HCV 1b genotype; read-out: EC50 range against HCV 1b (Table 2, Range)

First: CCN(CC)[C@H](C)C(=O)N1CCC[C@H]1c1ncc(-c2ccc(-c3ccc(-c4cnc([C@@H]5CCCN5C(=O)[C@@H](C)N(CC)CC)[nH]4)cc3)cc2)[nH]1 [Example M9, (2R,2′R)-1,1′-(4,4′-biphenyldiylbis(1H-imidazole-5,2-diyl(2S)-2,1-pyrrolidinediyl))bis(N,N-diethyl-1-oxo-2-propanamine)]
Second: CCCN(CCC)[C@H](C)C(=O)N1CCC[C@H]1c1ncc(-c2ccc(-c3ccc(-c4cnc([C@@H]5CCCN5C(=O)[C@@H](c5ccccc5)N(CC)CC)[nH]4)cc3)cc2)[nH]1 [Example M46, N-((1R)-2-((2S)-2-(5-(4′-(2-((2S)-1-((2R)-2-(diethylamino)-2-phenylacetyl)-2-pyrrolidinyl)-1H-imidazol-5-yl)-4-biphenylyl)-1H-imidazol-2-yl)-1-pyrrolidinyl)-1-methyl-2-oxoethyl)-N-propyl-1-propanamine]
The EC50 of the first is higher: 100 to 999 nM for the first, 1 to 99 nM for the second.

First: COC(=O)N[C@H](C(=O)N1CCC[C@H]1c1ncc(-c2ccc(-c3ccc(-c4cnc([C@@H]5CCCN5C(=O)[C@H](NC5=NCCN5)C(C)C)[nH]4)cc3)cc2)[nH]1)C1CC1 [cj-11o, methyl ((1S)-1-cyclopropyl-2-((2S)-2-(5-(4′-(2-((2S)-1-(N-(4,5-dihydro-1H-imidazol-2-yl)-D-valyl)-2-pyrrolidinyl)-1H-imidazol-5-yl)-4-biphenylyl)-1H-imidazol-2-yl)-1-pyrrolidinyl)-2-oxoethyl)carbamate]
Second: COC(=O)N[C@H](C(=O)N1CCC[C@H]1c1ncc(-c2ccc(-c3ccc(-c4cnc([C@@H]5CCCN5C(=O)[C@@H](NC5=NCCN5C)C(C)C)[nH]4)cc3)cc2)[nH]1)C(C)C [cj-11d, methyl ((1S)-2-methyl-1-(((2S)-2-(5-(4′-(2-((2S)-1-(N-(1-methyl-4,5-dihydro-1H-imidazol-2-yl)-L-valyl)-2-pyrrolidinyl)-1H-imidazol-5-yl)-4-biphenylyl)-1H-imidazol-2-yl)-1-pyrrolidinyl)carbonyl)propyl)carbamate]
The EC50 of the first is higher: 1 to 99 nM for the first, 0.001 to 0.999 nM for the second. The second is the more potent here.

`O=C([C@@H](c1ccccc1)N1CCCCC1)N1CCC[C@H]1c1ncc(-c2ccc(-c3ccc(-c4cnc([C@@H]5CCCN5C(=O)[C@@H](c5ccccc5)N5CCCCC5)[nH]4)cc3)cc2)[nH]1` [Example 24-1, 1,1′-(4,4′-biphenyldiylbis(1H-imidazole-5,2-diyl(2S)-2,1-pyrrolidinediyl((1R)-2-oxo-1-phenyl-2,1-ethanediyl)))dipiperidine] and `CNC(=O)c1nc([C@@H]2CCCN2C(=O)[C@@H](c2ccccc2)N2CCCCC2)[nH]c1-c1ccc(-c2ccc(-c3cnc([C@@H]4CCCN4C(=O)[C@@H](c4ccccc4)N4CCCCC4)[nH]3)cc2)cc1` [Example J27, N-methyl-2-((2S)-1-((2R)-2-phenyl-2-(1-piperidinyl)acetyl)-2-pyrrolidinyl)-5-(4′-(2-((2S)-1-((2R)-2-phenyl-2-(1-piperidinyl)acetyl)-2-pyrrolidinyl)-1H-imidazol-5-yl)-4-biphenylyl)-1H-imidazole-4-carboxamide] fall in the same range of EC50: 0.001 to 0.999 nM for the first, 0.001 to 0.999 nM for the second.

`Cc1cc(-c2cnc([C@@H]3CCCN3C(=O)[C@@H](c3ccccc3)N(C)C)[nH]2)ccc1-c1ccc(-c2cnc([C@@H]3CCCN3C(=O)[C@@H](c3ccccc3)N(C)C)[nH]2)cc1C` [Example 121] and `COC(=O)N[C@@H](C(=O)N1CCC[C@H]1c1ncc(-c2ccc(-c3ccc(-c4cnc([C@@H]5CCCN5C(=O)[C@H](c5ccccc5)N(C)C)[nH]4)cc3)cc2)[nH]1)c1ccccc1` [Example 38, methyl ((1R)-2-((2S)-2-(5-(4′-(2-((2S)-1-((2S)-2-(dimethylamino)-2-phenylacetyl)-2-pyrrolidinyl)-1H-imidazol-5-yl)-4-biphenylyl)-1H-imidazol-2-yl)-1-pyrrolidinyl)-2-oxo-1-phenylethyl)carbamate] fall in the same range of EC50: 0.001 to 0.999 nM for the first, 0.001 to 0.999 nM for the second.

`COC(=O)N[C@@H](C(=O)N1CCC[C@H]1c1ncc(-c2ccc(-c3ccc(-c4cnc([C@@H]5CCCN5C(=O)[C@@H](c5ccccc5)N(C)C)[nH]4)cn3)cc2)[nH]1)c1ccccc1` [Example 140, methyl ((1R)-2-((2S)-2-(5-(4-(5-(2-((2S)-1-((2R)-2-(dimethylamino)-2-phenylacetyl)-2-pyrrolidinyl)-1H-imidazol-5-yl)-2-pyridinyl)phenyl)-1H-imidazol-2-yl)-1-pyrrolidinyl)-2-oxo-1-phenylethyl)carbamate] and `CO[C@@H](C(=O)N1CCC[C@H]1c1ncc(-c2ccc(-c3ccc(-c4cnc([C@@H]5CCCN5C(=O)[C@H](OC)c5ccccc5)[nH]4)cc3)cc2)[nH]1)c1ccccc1` [Example 8, 5,5′-(4,4′-biphenyldiyl)bis(2-((2S)-1-((2R)-2-methoxy-2-phenylacetyl)-2-pyrrolidinyl)-1H-imidazole)] fall in the same range of EC50: 0.001 to 0.999 nM for the first, 0.001 to 0.999 nM for the second.

First: COC(=O)N[C@H](C)C(=O)N1CCC[C@H]1c1ncc(-c2ccc(-c3ccc(-c4cnc([C@@H]5CCCN5C(=O)[C@@H](C)NC(=O)OC)[nH]4)cc3)cc2)[nH]1 [Example M18, methyl ((1R)-2-((2S)-2-(5-(4′-(2-((2S)-1-(N-(methoxycarbonyl)-D-alanyl)-2-pyrrolidinyl)-1H-imidazol-5-yl)-4-biphenylyl)-1H-imidazol-2-yl)-1-pyrrolidinyl)-1-methyl-2-oxoethyl)carbamate]
Second: CNC(=O)c1nc([C@@H]2CCCN2C(=O)[C@H](C)NC(=O)OC)[nH]c1-c1ccc(-c2ccc(-c3cnc([C@@H]4CCCN4C(=O)[C@@H](C)NC(=O)OC)[nH]3)cc2)cc1 [Example J28, methyl ((1S)-2-((2S)-2-(5-(4′-(2-((2S)-1-(N-(methoxycarbonyl)-L-alanyl)-2-pyrrolidinyl)-4-(methylcarbamoyl)-1H-imidazol-5-yl)-4-biphenylyl)-1H-imidazol-2-yl)-l-pyrrolidinyl)-l-methyl-2-oxoethyl)carbamate]
The EC50 of the first is higher: 1000 to 10000 nM for the first, 1 to 99 nM for the second. The second is the more potent here.

First: O=C(OCc1ccccc1)N1CCC[C@H]1c1ncc(-c2ccc(-c3ccc(-c4cnc([C@@H]5CCCN5C(=O)OCc5ccccc5)[nH]4)cc3)cc2)[nH]1 [Example 109, dibenzyl (2S,2′S)-2,2′-(4,4′-biphenyldiylbis(1H-imidazole-5,2-diyl))di(1-pyrrolidinecarboxylate)]
Second: O=C([C@H]1CCN(Cc2ccccc2)C1)N1CCC[C@H]1c1ncc(-c2ccc(-c3ccc(-c4cnc([C@@H]5CCCN5C(=O)[C@@H](c5ccccc5)N5CCCCC5)[nH]4)cc3)cc2)[nH]1 [Example 107-18, 1-((1R)-2-((2S)-2-(5-(4′-(2-((2S)-1-(((3S)-1-benzyl-3-pyrrolidinyl)carbonyl)-2-pyrrolidinyl)-1H-imidazol-5-yl)-4-biphenylyl)-1H-imidazol-2-yl)-1-pyrrolidinyl)-2-oxo-1-phenylethyl) piperidine]
The EC50 of the first is higher: 1 to 99 nM for the first, 0.001 to 0.999 nM for the second. The second is the more potent here.

First: COC(=O)N[C@@H](C(=O)N1CCC[C@H]1c1ncc(-c2ccc(-c3ccc(-c4[nH]c([C@@H]5CCCN5C(=O)[C@H](NC(=O)OC)c5ccccc5)nc4C(=O)O)cc3)cc2)[nH]1)c1ccccc1 [Example J30]
Second: CCCc1[nH]c([C@@H]2CCCN2C(=O)[C@@H](c2ccccc2)N(CC)CC)nc1-c1ccc(-c2ccc(-c3cnc([C@@H]4CCCN4C(=O)[C@@H](c4ccccc4)N(CC)CC)[nH]3)cc2)cc1 [Example J14c.1, (1R)-2-((2S)-2-(4-(4′-(2-((2S)-1-((2R)-2-(diethylamino)-2-phenylacetyl)-2-pyrrolidinyl)-1H-imidazol-4-yl)-4-biphenylyl)-5-propyl-1H-imidazol-2-yl)-1-pyrrolidinyl)-N,N-diethyl-2-oxo-1-phenylethanamine]
The EC50 of the first is higher: 1 to 99 nM for the first, 0.001 to 0.999 nM for the second.

`CCN(CC)[C@H](C)C(=O)N1CCC[C@H]1c1ncc(-c2ccc(-c3ccc(-c4cnc([C@@H]5CCCN5C(=O)[C@H](NC(=O)OC)c5ccccc5)[nH]4)cc3)cc2F)[nH]1` [Example D48, methyl ((1R)-2-((2S)-2-(5-(4′-(2-((2S)-1-(N,N-diethyl-D-alanyl)-2-pyrrolidinyl)-1H-imidazol-5-yl)-3′-fluoro-4-biphenylyl)-1H-imidazol-2-yl)-1-pyrrolidinyl)-2-oxo-1-phenylethyl)carbamate] and `COC(=O)N[C@@H](C)C(=O)N1CCC[C@H]1c1ncc(-c2ccc(-c3ccc(-c4cnc([C@@H]5CCCN5C(=O)[C@@H](Nc5ncccn5)C(C)C)[nH]4)cc3)cc2)[nH]1` [cj-11a, methyl ((1S)-1-methyl-2-oxo-2-((2S)-2-(5-(4′-(2-((2S)-1-(N-2-pyrimidinyl-L-valyl)-2-pyrrolidinyl)-1H-imidazol-5-yl)-4-biphenylyl)-1H-imidazol-2-yl)-1-pyrrolidinyl)ethyl)carbamate] fall in the same range of EC50: 0.001 to 0.999 nM for the first, 0.001 to 0.999 nM for the second.

`CN1CCN(C(C(=O)N2CCC[C@H]2c2ncc(-c3ccc(-c4ccc(-c5c[nH]c([C@@H]6CCCN6C(=O)[C@H]6CCCO6)n5)cc4)cc3)[nH]2)c2ccccc2)CC1` (stereo partly drawn) [Example 103-3, 1-methyl-4-(2-oxo-1-phenyl-2-((2S)-2-(5-(4′-(2-((2S)-1-((2R)-tetrahydro-2-furanylcarbonyl)-2-pyrrolidinyl)-1H-imidazol-4-yl)-4-biphenylyl)-1H-imidazol-2-yl)-1-pyrrolidinyl)ethyl)piperazine] and `COC(=O)N[C@H](C(=O)N1CCC[C@H]1c1ncc(-c2ccc(-c3ccc(-c4cnc([C@]5(C)CCCN5C(=O)[C@@H](NC(=O)OC)C(C)C)[nH]4)cc3)cc2)[nH]1)C(C)C` [LS36, methyl ((1S)-1-(((2S)-2-(5-(4′-(2-((2S)-1-((2S)-2-((methoxycarbonyl)amino)-3-methylbutanoyl)-2-pyrrolidinyl)-1H-imidazol-5-yl)-4-biphenylyl)-1H-imidazol-2-yl)-2-methyl-1-pyrrolidinyl)carbonyl)-2-methylpropyl)carbamate] fall in the same range of EC50: 0.001 to 0.999 nM for the first, 0.001 to 0.999 nM for the second.
